{"source": "patent US7507739B2", "about": "“6-[(substituted)phenyl]triazolopyrimidines as anticancer agents” (Wyeth, priority 2003, dated 2009)", "key": {"[1]": {"tested_on": "DLD1 Human Colon Carcinoma", "assay": "Human tumor xenograft test, DLD1", "format": "in vivo", "settings": "days 1, 5, 9, 13", "procedure": "The ability of compounds of this invention to inhibit tumor growth in animals is studied in the athymic mouse xenograft standard pharmacological test. Female nu/nu mice in an outbred albino background are obtained from Charles River Laboratories (Wilmington, Mass.). Animals are injected subcutaneously on the flank with the desired tumor cell suspension. Several days later, mice with tumors of approximately 150 mm^3 are selected from those injected (staged) and randomly distributed into groups of 5-10. The day of staging is called day 0. Compounds of the invention, usually formulated in saline (exceptions are noted in tables), are administered to animals by intravenous injection or oral gavage on various schedules starting on day 0 or 1, as noted in the tables. The control group in each experiment is dosed with vehicle on the same schedule. Tumor size is measured every 3-7 days with calipers in two orthogonal dimensions, and tumor volume is calculated from the formula volume=[(length×width^2)/2].\nTumor/Control (T/C) is obtained by dividing the mean tumor volume of the treated group by the mean tumor volume of the control group on each measurement day. A treatment dose is defined as active if it produced a statistically significant T/C of 0.50 or less. A p value≦0.05, determined by one-side Student's t-test, is required for statistical significance. A treatment dose is defined as toxic if more than 10% of the animals died from a compound-related toxicity."}, "HeLa cells": {"tested_on": "HeLa cells", "assay": "Cell cycle analysis with HeLa cells", "format": "cell-based, human", "settings": "18 hr", "procedure": "HeLa cells are harvested by trypsinization, washed, counted and distributed to wells of 12-well plates at 125,000 cells per well in 2 mL medium. Cells are cultured overnight. […] Cells are continued in culture for 18 hr after compound addition, then cells in each well are harvested (taking care to recover both adherent and non-adherent cells) and processed using the CycleTEST PLUS kit (Becton Dickinson Immunocytometry Systems, San Jose, Calif.). Flow cytometry is done with a FACSort instrument (Becton Dickinson).\nThis procedure measures the percentages of cells in a population that are in the G1, S, and G2/M phases of the cell cycle. It utilizes staining of cell nuclei with propidium iodide and analysis by flow cytometry."}}, "note": "Marks after values point to notes of the source that are not given here.", "data": [{"smiles": "C[C@H](Nc1c(-c2c(F)cc(OCCCN(C)C)cc2F)c(Cl)nc2ncnn12)C(F)(F)F.Cl", "note": "[Example 1a, 5-chloro-6-{4-[3-(dimethylamino)propoxy]-2,6-difluorophenyl}-N-[(1S)-2,2,2-trifluoro-1-methylethyl][1,2,4]triazolo[1,5-a]pyrimidin-7-amine hydrogen chloride Salt]", "values": [{"measurement": "T/C on day 0", "setting": "[1]; DLD1, 10 mg/kg IV", "value": 1.00}, {"measurement": "T/C on day 7", "setting": "[1]; DLD1, 10 mg/kg IV", "value": 0.63}, {"measurement": "T/C on day 14", "setting": "[1]; DLD1, 10 mg/kg IV", "value": 0.51}, {"measurement": "T/C on day 21", "setting": "[1]; DLD1, 10 mg/kg IV", "value": 0.58}, {"measurement": "T/C on day 0", "setting": "[1]; DLD1, 15 mg/kg IV", "value": 1.00}, {"measurement": "T/C on day 7", "setting": "[1]; DLD1, 15 mg/kg IV", "value": "0.21**"}, {"measurement": "T/C on day 14", "setting": "[1]; DLD1, 15 mg/kg IV", "value": 0.25}, {"measurement": "T/C on day 21", "setting": "[1]; DLD1, 15 mg/kg IV", "value": 0.31}, {"measurement": "T/C on day 0", "setting": "[1]; DLD1, 20 mg/kg IV", "value": 1.00}, {"measurement": "T/C on day 7", "setting": "[1]; DLD1, 20 mg/kg IV", "value": "0.31**"}, {"measurement": "toxicity of treatment dose", "setting": "[1]; DLD1 xenograft mice, 20 mg/kg IV, day 14", "value": "Toxic"}, {"measurement": "Percent in Cell Cycle Phase >4N", "setting": "HeLa cells; 20 nM", "value": 2, "unit": "%"}, {"measurement": "Percent in Cell Cycle Phase Apop", "setting": "HeLa cells; 20 nM", "value": 13, "unit": "%"}, {"measurement": "Percent in Cell Cycle Phase G1", "setting": "HeLa cells; 20 nM", "value": 54, "unit": "%"}, {"measurement": "Percent in Cell Cycle Phase G2/M", "setting": "HeLa cells; 20 nM", "value": 14, "unit": "%"}, {"measurement": "Percent in Cell Cycle Phase S", "setting": "HeLa cells; 20 nM", "value": 18, "unit": "%"}, {"measurement": "Percent in Cell Cycle Phase >4N", "setting": "HeLa cells; 30 nM", "value": 1, "unit": "%"}, {"measurement": "Percent in Cell Cycle Phase Apop", "setting": "HeLa cells; 30 nM", "value": 38, "unit": "%"}, {"measurement": "Percent in Cell Cycle Phase G1", "setting": "HeLa cells; 30 nM", "value": 35, "unit": "%"}, {"measurement": "Percent in Cell Cycle Phase G2/M", "setting": "HeLa cells; 30 nM", "value": 14, "unit": "%"}, {"measurement": "Percent in Cell Cycle Phase S", "setting": "HeLa cells; 30 nM", "value": 12, "unit": "%"}, {"measurement": "Percent in Cell Cycle Phase >4N", "setting": "HeLa cells; 40 nM", "value": 1, "unit": "%"}, {"measurement": "Percent in Cell Cycle Phase Apop", "setting": "HeLa cells; 40 nM", "value": 71, "unit": "%"}, {"measurement": "Percent in Cell Cycle Phase G1", "setting": "HeLa cells; 40 nM", "value": 7, "unit": "%"}, {"measurement": "Percent in Cell Cycle Phase G2/M", "setting": "HeLa cells; 40 nM", "value": 13, "unit": "%"}, {"measurement": "Percent in Cell Cycle Phase S", "setting": "HeLa cells; 40 nM", "value": 8, "unit": "%"}, {"measurement": "Percent in Cell Cycle Phase Apop", "setting": "HeLa cells; 40 nM, listed as example 1a", "value": "about 70%"}, {"measurement": "Percent in Cell Cycle Phase G2/M", "setting": "HeLa cells; 40 nM, listed as example 1a", "value": "no increase"}, {"measurement": "Percent in Cell Cycle Phase >4N", "setting": "HeLa cells; 50 nM", "value": 2, "unit": "%"}, {"measurement": "Percent in Cell Cycle Phase Apop", "setting": "HeLa cells; 50 nM", "value": 63, "unit": "%"}, {"measurement": "Percent in Cell Cycle Phase G1", "setting": "HeLa cells; 50 nM", "value": 6, "unit": "%"}, {"measurement": "Percent in Cell Cycle Phase G2/M", "setting": "HeLa cells; 50 nM", "value": 20, "unit": "%"}, {"measurement": "Percent in Cell Cycle Phase S", "setting": "HeLa cells; 50 nM", "value": 9, "unit": "%"}, {"measurement": "Percent in Cell Cycle Phase >4N", "setting": "HeLa cells; 60 nM", "value": 3, "unit": "%"}, {"measurement": "Percent in Cell Cycle Phase Apop", "setting": "HeLa cells; 60 nM", "value": 52, "unit": "%"}, {"measurement": "Percent in Cell Cycle Phase G1", "setting": "HeLa cells; 60 nM", "value": 5, "unit": "%"}, {"measurement": "Percent in Cell Cycle Phase G2/M", "setting": "HeLa cells; 60 nM", "value": 32, "unit": "%"}, {"measurement": "Percent in Cell Cycle Phase S", "setting": "HeLa cells; 60 nM", "value": 10, "unit": "%"}, {"measurement": "Percent in Cell Cycle Phase >4N", "setting": "HeLa cells; 70 nM", "value": 4, "unit": "%"}, {"measurement": "Percent in Cell Cycle Phase Apop", "setting": "HeLa cells; 70 nM", "value": 26, "unit": "%"}, {"measurement": "Percent in Cell Cycle Phase G1", "setting": "HeLa cells; 70 nM", "value": 3, "unit": "%"}, {"measurement": "Percent in Cell Cycle Phase G2/M", "setting": "HeLa cells; 70 nM", "value": 57, "unit": "%"}, {"measurement": "Percent in Cell Cycle Phase S", "setting": "HeLa cells; 70 nM", "value": 9, "unit": "%"}, {"measurement": "Percent in Cell Cycle Phase >4N", "setting": "HeLa cells; 80 nM", "value": 5, "unit": "%"}, {"measurement": "Percent in Cell Cycle Phase Apop", "setting": "HeLa cells; 80 nM", "value": 24, "unit": "%"}, {"measurement": "Percent in Cell Cycle Phase G1", "setting": "HeLa cells; 80 nM", "value": 4, "unit": "%"}, {"measurement": "Percent in Cell Cycle Phase G2/M", "setting": "HeLa cells; 80 nM", "value": 58, "unit": "%"}, {"measurement": "Percent in Cell Cycle Phase S", "setting": "HeLa cells; 80 nM", "value": 9, "unit": "%"}, {"measurement": "Percent in Cell Cycle Phase >4N", "setting": "HeLa cells; 90 nM", "value": 6, "unit": "%"}, {"measurement": "Percent in Cell Cycle Phase Apop", "setting": "HeLa cells; 90 nM", "value": 22, "unit": "%"}, {"measurement": "Percent in Cell Cycle Phase G1", "setting": "HeLa cells; 90 nM", "value": 5, "unit": "%"}, {"measurement": "Percent in Cell Cycle Phase G2/M", "setting": "HeLa cells; 90 nM", "value": 58, "unit": "%"}, {"measurement": "Percent in Cell Cycle Phase S", "setting": "HeLa cells; 90 nM", "value": 10, "unit": "%"}, {"measurement": "Percent in Cell Cycle Phase >4N", "setting": "HeLa cells; 100 nM", "value": 5, "unit": "%"}, {"measurement": "Percent in Cell Cycle Phase Apop", "setting": "HeLa cells; 100 nM", "value": 24, "unit": "%"}, {"measurement": "Percent in Cell Cycle Phase G1", "setting": "HeLa cells; 100 nM", "value": 4, "unit": "%"}, {"measurement": "Percent in Cell Cycle Phase G2/M", "setting": "HeLa cells; 100 nM", "value": 58, "unit": "%"}, {"measurement": "Percent in Cell Cycle Phase S", "setting": "HeLa cells; 100 nM", "value": 10, "unit": "%"}, {"measurement": "Percent in Cell Cycle Phase >4N", "setting": "HeLa cells; 110 nM", "value": 5, "unit": "%"}, {"measurement": "Percent in Cell Cycle Phase Apop", "setting": "HeLa cells; 110 nM", "value": 24, "unit": "%"}, {"measurement": "Percent in Cell Cycle Phase G1", "setting": "HeLa cells; 110 nM", "value": 6, "unit": "%"}, {"measurement": "Percent in Cell Cycle Phase G2/M", "setting": "HeLa cells; 110 nM", "value": 53, "unit": "%"}, {"measurement": "Percent in Cell Cycle Phase S", "setting": "HeLa cells; 110 nM", "value": 13, "unit": "%"}, {"measurement": "Percent in Cell Cycle Phase >4N", "setting": "HeLa cells; 120 nM", "value": 5, "unit": "%"}, {"measurement": "Percent in Cell Cycle Phase Apop", "setting": "HeLa cells; 120 nM", "value": 28, "unit": "%"}, {"measurement": "Percent in Cell Cycle Phase G1", "setting": "HeLa cells; 120 nM", "value": 6, "unit": "%"}, {"measurement": "Percent in Cell Cycle Phase G2/M", "setting": "HeLa cells; 120 nM", "value": 48, "unit": "%"}, {"measurement": "Percent in Cell Cycle Phase S", "setting": "HeLa cells; 120 nM", "value": 14, "unit": "%"}]}]}
